Consider 13 compounds from patent US6723753B2, “Substituted n-benzyl-n-phenyl aminoalcohol compounds useful for inhibiting cholesteryl ester transfer protein activity” (Pharmacia Corporation, priority 2002, dated 2004).

The target of experiment [1] is T1, CETP (Homo sapiens, UniProt P11597).
T1 sequence (P11597 18-493): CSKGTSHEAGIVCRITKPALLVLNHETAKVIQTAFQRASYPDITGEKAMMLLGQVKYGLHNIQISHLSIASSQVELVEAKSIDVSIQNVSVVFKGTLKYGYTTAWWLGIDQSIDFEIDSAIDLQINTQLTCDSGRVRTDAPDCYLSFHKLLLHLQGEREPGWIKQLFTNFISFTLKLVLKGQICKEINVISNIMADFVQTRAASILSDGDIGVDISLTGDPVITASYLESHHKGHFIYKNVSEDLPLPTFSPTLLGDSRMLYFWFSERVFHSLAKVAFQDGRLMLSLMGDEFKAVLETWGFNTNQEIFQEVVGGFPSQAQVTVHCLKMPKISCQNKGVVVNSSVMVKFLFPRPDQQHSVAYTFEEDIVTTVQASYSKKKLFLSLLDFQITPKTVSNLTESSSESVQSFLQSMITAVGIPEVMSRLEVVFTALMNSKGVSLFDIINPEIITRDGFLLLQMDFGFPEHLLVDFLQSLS
In words: Assay of CETP Inhibition using Purified Components (Reconstituted Buffer Assay). Also on record: made in house; host or cells: CHO cells (serum-free conditioned medium). Format: biochemical. In a few lines: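 Purified human recombinant CETP from transfected CHO cells was incubated with [^3H]CE-labeled HDL donor and LDL acceptor in Tris pH 7.4/NaCl/EDTA/1% BSA buffer for 2 h at 37 °C. LDL was then precipitated with dextran sulfate/MgCl2, filtered, and counted by liquid scintillation to give IC50 for CE transfer.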

Experiment [2] has as its target T1, CETP. Kind of experiment: Assay of CETP Inhibition in Human Plasma. Format: biochemical. More on the design: Blood was obtained from healthy volunteers, recruited from the personnel of Monsanto Company; from tissue; host or cells: human EDTA plasma pool from healthy volunteers. Conditions: Inhibition of CETP activity in human plasma assay; transfer of [3H]CE from HDL to VLDL and LDL; read-out: IC50. In a few lines:
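In human EDTA plasma with [3H]CE-HDL, compounds in 1% DMSO (4 μL in 396 μL) were incubated 4 h at 37° C. IC50 was taken from % control versus concentration.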

Where [3] appears, read: Inhibition of CETP activity in reconstituted buffer assay, transfer of [3H]CE from HDL to LDL, read-out: IC50.

The structures appear in SMILES notation.

Regarding `OC(COc1cccc(CN(CC(O)C(F)(F)F)c2cccc(Oc3ccccc3)c2)c1)C(F)(F)F` (centres unmarked) [Example 655, 3-[(3-phenoxyphenyl)[[3-(2-hydroxy-3,3,3-trifluoro-n-propoxy)phenyl]methyl]amino]-1,1,1-trifluoro-2-propanol], the results for the half-inhibitory concentration (IC50) at CETP [1] (setting [3]) and at CETP [2] were 3.6 µM and 48 µM, respectively.
With `OC(COc1cccc(CN(CC(O)C(F)(F)F)c2cccc(Oc3ccc(F)cc3)c2)c1)C(F)(F)F` (centres unmarked) [Example 655B, 3-[3-(4-fluorophenoxy)phenyl[[3-(2-hydroxy-3,3,3-trifluoro-n-propoxy)phenyl]methyl]amino]-1,1,1-trifluoro-2-propanol], the half-inhibitory concentration (IC50) turned out to be 1.3 µM on CETP [1] (setting [3]) and 63 µM on CETP [2].
In the case of `CCc1cc(Oc2cccc(N(Cc3cccc(C(F)(F)C(F)(F)F)c3)CC(O)C(F)(F)F)c2)ccc1Cl` (centres unmarked) [Example 660, 3-[(4-chloro-3-ethylphenoxy)phenyl[[3-(pentafluoroethyl)phenyl]methyl]-amino]-1,1,1-trifluoro-2-propanol.], the IC50 turned out to be 0.04 µM at CETP [1] (setting [3]) and 1.1 µM on CETP [2].
As to `CC(=O)OC(CN(Cc1cccc(C(F)(F)F)c1)c1cccc(F)c1)C(F)(F)F` (centres unmarked) [Example 664, 2,2,2-trifluoro-1-[[(3-fluorophenyl)[3-(trifluoromethyl)phenyl]-methyl]amino]methyl]ethyl Acetate], the IC50 is 70 µM on CETP [1] and above 200 µM on CETP [2].
Turning to `COc1ccc(CN(CC(O)C(F)(F)F)c2cccc(Oc3ccccc3)c2)cc1` (centres unmarked) [Example 686], the IC50 at CETP [1] (setting [3]) was 15 µM; on CETP [2], above 100 µM.
For `OC(CN(Cc1cccc(C(F)(F)F)c1)c1cccc(OC(F)(F)F)c1)C(F)(F)F` (centres unmarked) [Example 688], the IC50 at CETP [1] (setting [3]) is 2.5 µM; on CETP [2], above 100 µM.
The matching figures for `OC(CN(Cc1cccc(Oc2ccccc2)c1)c1cc(C(F)(F)F)cc(C(F)(F)F)c1)C(F)(F)F` (centres unmarked) [Example 690]: 2.5 µM and 75 µM.
As to `OC(CN(Cc1cccc(C(F)(F)F)c1)c1cc(C(F)(F)F)ccc1C(F)(F)F)C(F)(F)F` (centres unmarked) [Example 691], the IC50 was 3 µM on CETP [1] (setting [3]) and above 100 µM on CETP [2].
Consider `OC(CN(Cc1cccc(SC(F)(F)F)c1)c1cccc(Oc2ccccc2)c1)C(F)(F)F` (centres unmarked) [compound 216], for which the IC50 is 0.39 µM on CETP [1] (IC50, Inhibition of CETP activity in reconstituted buffer assay, transfer of [3H]CE from HDL to LDL) and 24 µM at CETP [2].
In the case of `O=S(=O)(c1ccccc1)c1cccc(N(Cc2cccc(OC(F)(F)C(F)F)c2)CC(O)C(F)(F)F)c1` (centres unmarked) [compound 218], the IC50 came to 0.91 µM on CETP [1] (setting [3]) and 31 µM at CETP [2].
On to `OC(CN(Cc1cccc(OC(F)(F)C(F)F)c1)c1cccc(N2CCCCC2)c1)C(F)(F)F` (centres unmarked) [compound 315], for which the IC50 on CETP [1] (setting [3]) was 2.1 µM; on CETP [2] it was above 100 µM.
`OC(CN(Cc1ccc(F)c(-c2ccco2)c1)c1cccc(Oc2ccccc2)c1)C(F)(F)F` (centres unmarked) [compound 593]: the results for the IC50 on CETP [1] (setting [3]) and on CETP [2] were 0.78 µM and 49 µM, respectively.
With `OC(CN(Cc1cccc(OC(F)(F)F)c1)c1ccc2c(c1)Cc1ccccc1-2)C(F)(F)F` (centres unmarked) [compound 699], the half-maximal inhibitory concentration (IC50) is 1.5 µM on CETP [1] (setting [3]) and 55 µM on CETP [2].
